≈ marks a conversion by molar mass, not a printed value. Where a name gives a salt, the structure may show the parent alone.
Key:
[1] = system: S. aureus ATCC 33593(Meth^R); assay: In vitro MIC, agar dilution; type: cell-based; conditions: Staphylococcus aureus, ATCC33593, read-out: minimum inhibitory concentration (MIC)
Summary of the method: (§1)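 Growth inhibition was scored after 16-20 h at 35-36 °C on Mueller-Hinton agar carrying serial two-fold drug concentrations (128 to ≤0.25 μg/mL). Inocula of ~10^4 cfu per spot came from 4-6 h broth cultures.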

E. coli ATCC 25992 = assay: In vitro MIC, agar dilution; type: cell-based; conditions: Escherichia coli, ATCC25992, read-out: minimum inhibitory concentration (MIC)
Summary of the method: as §1

[2] = system: S. haemolyticus 05(Meth^R); assay: In vitro MIC, agar dilution; type: cell-based; conditions: Staphylococcus haemolyticus, read-out: minimum inhibitory concentration (MIC)
Summary of the method: as §1

[3] = system: S. aureus Spain #356(Meth^R); assay: In vitro MIC, agar dilution; type: cell-based; conditions: Staphylococcus aureus, read-out: minimum inhibitory concentration (MIC)
Summary of the method: as §1

E. faecium A491(Amp^R) = assay: In vitro MIC, agar dilution; type: cell-based; conditions: Enterococcus faecium, read-out: minimum inhibitory concentration (MIC)
Summary of the method: as §1

S. aureus ATCC 29213 = assay: In vitro MIC, agar dilution; type: cell-based; conditions: Staphylococcus aureus, ATCC29213, read-out: minimum inhibitory concentration (MIC)
Summary of the method: as §1

E. faecium VanA(Van^R) = assay: In vitro MIC, agar dilution; type: cell-based; conditions: Enterococcus faecium, read-out: minimum inhibitory concentration (MIC)
Summary of the method: as §1

E. faecalis ATCC 29212 = assay: In vitro MIC, agar dilution; type: cell-based; conditions: Enterococcus faecalis, ATCC29212, read-out: minimum inhibitory concentration (MIC)
Summary of the method: as §1

E. faecium ATCC 35667 = assay: In vitro MIC, agar dilution; type: cell-based; conditions: Enterococcus faecium, ATCC35667, read-out: minimum inhibitory concentration (MIC)
Summary of the method: as §1

[4] = system: S. aureus 76(Meth^R)(lac^+); assay: In vitro MIC, agar dilution; type: cell-based; conditions: Staphylococcus aureus, read-out: minimum inhibitory concentration (MIC)
Summary of the method: as §1

[5] = system: S. aureus ATCC 13709(Meth^S); assay: In vitro MIC, agar dilution; type: cell-based; conditions: Staphylococcus aureus, ATCC13709, S. aureus ATCC 13709(Meth^S); read-out: minimum inhibitory concentration (MIC)
Summary of the method: as §1

P. aeruginosa ATCC 27853 = assay: In vitro MIC, agar dilution; type: cell-based; conditions: Pseudomonas aeruginosa, ATCC27853, read-out: minimum inhibitory concentration (MIC)
Summary of the method: as §1

[6] = system: S. aureus PC1(Meth^S)(lac^+); assay: In vitro MIC, agar dilution; type: cell-based; conditions: Staphylococcus aureus, read-out: minimum inhibitory concentration (MIC)
Summary of the method: as §1

E. faecalis VanB(Van^R) = assay: In vitro MIC, agar dilution; type: cell-based; conditions: Enterococcus faecalis, read-out: minimum inhibitory concentration (MIC)
Summary of the method: as §1

[7] = system: S. aureus Col(Meth^R)(lac^-); assay: In vitro MIC, agar dilution; type: cell-based; conditions: Staphylococcus aureus, read-out: minimum inhibitory concentration (MIC)
Summary of the method: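 Two-fold dilutions (128 to ≤0.25 μg/mL, in duplicate) were poured into Mueller-Hinton agar. Log-phase broth cultures were spot-inoculated at about 10^4 cfu per spot and incubated 35-36°C for 16-20 hours; the MIC was the lowest concentration inhibiting growth. Col is a high-level PBP2a producer; Col 8A is its isogenic PBP2a-lacking partner.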

[8] = system: S. aureus strain ATCC 13709 (methicillin-susceptible); assay: Murine model for lethal bacteremic peritonitis; type: in vivo, female Swiss-Webster mice; conditions: Staphylococcus aureus, ATCC13709, SC, 72 h; for responders at 1.25 mg/kg: read-out: Survivors (converted); for ED50: two equal doses, IP challenge, read-out: ED50
Summary of the method: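 Female Swiss-Webster mice were challenged IP with an LD100 inoculum in 7% hog gastric mucin, then given test drug subcutaneously in twofold increments (0.01–512 mg/kg) as two equal doses at challenge and 2 h later, 10 mice per group. Survival was scored at 72 h; PD50 (total mg/kg) was derived by probit.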

SMILES | MIC [1] [mg/L] | MIC (E. coli ATCC 25992) [mg/L] | MIC [2] [mg/L] | MIC [3] [mg/L] | MIC (E. faecium A491(Amp^R)) [mg/L] | MIC (S. aureus ATCC 29213) [mg/L] | MIC (E. faecium VanA(Van^R)) [mg/L] | MIC (E. faecalis ATCC 29212) [mg/L] | MIC (E. faecium ATCC 35667) [mg/L] | MIC [4] [mg/L] | MIC [5] [mg/L] | MIC (P. aeruginosa ATCC 27853) [mg/L] | MIC [6] [mg/L] | MIC (E. faecalis VanB(Van^R)) [mg/L] | MIC [7] [mg/L] | responders at 0.3125 mg/kg ([8]; read-out: Survivors) [%] | responders at 0.625 mg/kg ([8]; read-out: Survivors) [%] | responders at 1.25 mg/kg [8] [%] | responders at 2.5 mg/kg ([8]; read-out: Survivors) [%] | ED50 [8] [mg/kg] | other results
N=C(N)NCCSCc1cnccc1SC1=C(C(=O)O)N2C(=O)[C@@H](NC(=O)/C(=N\O)c3csc(N)n3)[C@H]2SC1 [Cmpd 14, (7R)-7-[(Z)-2-(aminothiazol-4-yl)-2-(hydroxyimino)acetamido]-3-(3-guanidinoethylthiomethylpyrid-4-ylthio)-3-cephem-4-carboxylate, trifluoroacetic acid salt] | 2 | 4 | 4 | 4 | > 32 | 0.5 | 2 | 0.25 | 1 | 4 | 0.25 | > 32 | 0.5 | 0.25 | 4 | 10 | 30 | 30 | 90 | 1.13 | responders at 5 mg/kg ([8]; read-out: Survivors): 100%
CNCCSCc1cnccc1SC1=C(C(=O)O)N2C(=O)[C@@H](NC(=O)/C(=N\O)c3csc(N)n3)[C@H]2SC1 [Cmpd 15, (7R)-7-[(Z)-2-(aminothiazol-4-yl)-2-(hydroxyimino)acetamido]-3-(3-methylaminoethylthiomethylpyrid-4-ylthio)-3-cephem-4-carboxylate, trifluoroacetic acid salt] | 4 | 8 | 8 | 4 | > 32 | 1 | 4 | 2 | 2 | 4 | 0.5 | > 32 | 1 | 0.5 | 4 | 20 | 0 | 20 | 50 | 4.63 | responders at 5 mg/kg ([8]; read-out: Survivors): 50%
NCCSCc1cnccc1SC1=C(C(=O)O)N2C(=O)[C@@H](NC(=O)/C(=N\O)c3nc(N)sc3Cl)[C@H]2SC1 [Cmpd 16, (7R)-7-[(Z)-2-(2-amino-5-chlorothiazol-4-yl)-2-(hydroxyimino)acetamido]-3-(3-aminoethylthiomethylpyrid-4-ylthio)-3-cephem-4-carboxylate, trifluoroacetic acid salt] | 1 | 8 | 2 | 1 | 8 | 0.25 | 0.25 | ≤ 0.06 | 0.5 | 1 | 0.13 | > 32 | 0.25 | 0.13 | 0.5 | 10 | 30 | 55.6 | 80 | 1 | responders at 0.156 mg/kg ([8]; Dose 0.156 mg/kg, read-out: Survivors): 20%
NCCSCc1cnccc1SC1=C(C(=O)O)N2C(=O)[C@@H](NC(=O)/C(=N\O)c3ccccc3)[C@H]2SC1.O=C(O)C(F)(F)F [Cmpd 26, (7R)-7-[(Z)-2-phenyl-2-(hydroxyimino)acetamido]-3-(3-aminoethylthiomethylpyrid-4-ylthio)-3-cephem-4-carboxylate, trifluoroacetic acid salt] | 1 | > 32 | 2 | 1 | 8 | 0.13 | 0.5 | ≤ 0.06 | 0.25 | 1 | ≤ 0.06 | > 32 | 0.13 | 0.13 | 0.5 | 10 | 50 | 50 | 70 | 1.06 | responders at 5 mg/kg ([8]; read-out: Survivors): 90%
NCC(=O)NCCSCc1cnccc1SC1=C(C(=O)O)N2C(=O)[C@@H](NC(=O)/C(=N\O)c3nc(N)sc3Cl)[C@H]2SC1 [Cmpd 29, (7R)-7-[(Z)-2-(2-amino-5-chlorothiazol-4-yl)-2-(hydroxyimino)acetamido]-3-[3-(glycyl)aminoethylthiomethylpyrid-4-ylthio]-3-cephem-4-carboxylate, trifluoroacetic acid salt] | 2 | 8 | 2 | 2 | 4 | 0.25 | 0.5 | ≤ 0.06 | 0.25 | 1 | 0.13 | > 32 | 0.25 | ≤ 0.06 | 1 | 20 | 50 | 90 | 90 | 1.26 | responders at 5 mg/kg ([8]; read-out: Survivors): 70%
NCCSCc1cnccc1SC1=C(C(=O)O)N2C(=O)[C@@H](NC(=O)/C(=N\OCCF)c3nc(N)sc3Cl)[C@H]2SC1.O=C(O)C(F)(F)F [Cmpd 33, (7R)-7-[(Z)-2-(2-amino-5-chlorothiazol-4-yl)-2-(2-fluoroethoxyimino)acetamido]-3-(3-aminoethylthiomethylpyrid-4-ylthio)-3-cephem-4-carboxylate, trifluoroacetic acid salt] | 2 | 1 | 2 | 1 | 8 | 0.25 | 2 | 0.13 | 0.5 | 1 | 0.13 | 32 | 0.25 | 0.13 | 1 | 0 | 40 | 50 | 90 | 1.19 | responders at 5 mg/kg ([8]; read-out: Survivors): 80%
NC(=O)CSCc1cnccc1SC1=C(C(=O)O)N2C(=O)[C@@H](NC(=O)/C(=N\O)c3nc(N)sc3Cl)[C@H]2SC1 [Cmpd 39, (7R)-7-[(Z)-2-(2-amino-5-chlorothiazol-4-yl)-2-(hydroxyimino)acetamido]-3-(3-carboxamidomethylthiomethylpyrid-4-ylthio)-3-cephem-4-carboxylic acid] | 4 (≈ 6.49 µM) | 8 (≈ 13 µM) | 8 (≈ 13 µM) | 4 (≈ 6.49 µM) | 32 (≈ 51.9 µM) | 0.25 (≈ 0.406 µM) | 2 (≈ 3.25 µM) | 0.25 (≈ 0.406 µM) | 1 (≈ 1.62 µM) | 4 (≈ 6.49 µM) | 0.25 (≈ 0.406 µM) | > 32 | 0.5 (≈ 0.812 µM) | 0.25 (≈ 0.406 µM) | 2 (≈ 3.25 µM) | 10 | 30 | 60 | 60 | 1.15 | responders at 5 mg/kg ([8]; read-out: Survivors): 100%
